Assay results from article doi:10.1101/2025.09.12.675753, “In search of nonlipogenic ABCA1 inducers (NLAI): precision coregulator TR-FRET identifies diverse signatures for LXR ligands” (bioRxiv, 2025).
“Also recorded” adds a separate entry of the source. Where two headings read alike, the source gives them in different places.

Tests used:
LXRβ [1] = target: T1, LXRβ (Homo sapiens, UniProt P55055); test: Corepressor (NCOR2, SMRT2) binding CRT, LXRβ
T1 sequence (P55055 222-460 limits assumed): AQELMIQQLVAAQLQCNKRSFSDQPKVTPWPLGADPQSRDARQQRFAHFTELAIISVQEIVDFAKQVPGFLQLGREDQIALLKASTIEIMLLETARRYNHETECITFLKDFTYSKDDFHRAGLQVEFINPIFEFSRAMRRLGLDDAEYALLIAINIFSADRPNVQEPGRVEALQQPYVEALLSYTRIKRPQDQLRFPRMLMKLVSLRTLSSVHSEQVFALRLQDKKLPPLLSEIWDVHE

[2] = tested on: SREBF1, FAS, and SCD1 in HepG2 cells; test: RT-PCR of lipogenic genes in HepG2 cells; assay type: cell-based, human; settings: HepG2, 24 hours
Description: Owing to the anomalous response in the reporter assay, we measured lipogenic genes, SREBF1, FAS, and SCD1 by RT-PCR in HepG2 cells in response to treatment with the biphenyl sulfones (Figs 5G–I).
HepG2 cells were seeded in 12-well plates and treated with compounds for 24 hours. Following treatment, cells were washed once with PBS and then lysed in 350 μL of RLT buffer (Qiagen). Lysates were immediately frozen at −80 °C until RNA extraction. Total RNA was extracted using RNeasy Plus Mini columns (Qiagen) according to the manufacturer’s instructions. RNA concentration and purity were assessed using the A260/A280 ratio measured on a Synergy Neo2 plate reader (BioTek). For cDNA synthesis, 2 μg of total RNA was reverse transcribed using SuperScript III reverse transcriptase (Invitrogen), oligo(dT)12–18 primers, and dNTP mix, following the manufacturer’s protocol. Quantitative PCR was performed using TaqMan Gene Expression Master Mix (Invitrogen) with 2 μL of cDNA and gene-specific TaqMan probes in a 20 μL reaction volume per well. The following TaqMan assays were used: ABCA1: Hs01059101_m1, SREBF1: Hs01088691_m1, SCD: Hs01682761_m1, FASN: Hs01005622_m1, and HPRT1 (endogenous control): Hs02800695_m1. qPCR was performed on a StepOne Real-Time PCR System (Applied Biosystems), and gene expression was quantified using the ΔΔCt method.

LXR = test: CRT signature categorization, heat map of response at 1 μM; assay type: biochemical; settings: signatures of Table 1
Description: With the knowledge that corepressors bind to the apo-receptor; whereas coactivator binding requires a ligand-induced conformational change, we can categorize all ligands using their CRT profiles: ligands induce 3 conformations with CoR (destabilizing D, stabilizing S, neutral N) and only 2 conformations with CoA (stabilizing S, neutral N) (Table 1).
To determine which LXR ligands fit with these theoretical CRT signatures, concentration-response curves were interpolated to measure normalized response at 1 μM ligand concentration and plotted as a heat map (Figs 9A, S8).
The CRT signatures of the three agonist and three antagonist classifications were modelled in the same heat map using signatures defined in Table 1 and the measured responses to the real LXR ligands in our study.

[3] = tested on: SRE promoter luciferase (SRE-luc) in HepG2 cells; test: SRE-luc reporter in HepG2 cells; assay type: cell-based, human; settings: for SRE-luc response: HepG2, normalized to T0
Description: Our phenotypic high throughput screen (HTS) approach to identify nonlipogenic ABCA1 Inducers (NLAI) originally used counterscreening with a SREBP1c-luciferase reporter (linked to the SREBF1 gene promoter) in human hepatocarcinoma HepG2 cells.[81] Unwanted lipogenesis is mediated by LXR agonists via direct transcriptional activation and indirectly by the effects of SREBP1c.[57] [109] SREBP1c enhances transcription of genes required for synthesis of fatty acids and TG and as the dominant isoform in liver is associated most closely with lipogenesis and TG elevation.[109] […] Binding of SREBP1c to the sterol response element (SRE) induces transcription of lipogenic genes associated with elevated TG. To better model the lipogenic axis in hepatocytes, we use HepG2 cells stably transfected with a luciferase reporter downstream of a SRE promoter (SRE-luc), activation of which requires SREBP1c maturation.
HepG2 cells were cotransfected with SRE (LDLR)-NlucP SuperPiggyBac Transposon and a separate Transposase plasmid (System Biosciences). Cells were expanded for multiple passages followed by selection with puromycin (1ug/ml). Stable cells constitutively express GFP allowed for FACS enrichment and/or cell cloning. Initially, stable pools were compared to low expressing and high expressing enriched pools. The optimal pool was selected based on assay performance (Z’) and was grown and maintained as above, with the addition of 1.0 μg/mL of puromycin biweekly.

NASH mouse model = settings: cited from earlier work
[4] = tested on: ABCA1-promoter luciferase in CCF-STTG1 cells; test: ABCA1-luc reporter in CCF-STTG1 astrocytoma cells; assay type: cell-based, human; settings: for ABCA1-luc response: 24 hr incubation, normalized to T0 (100%)
Description: Astrocytoma CCF-STTG1 cells, stably transfected with an ABCA1-promoter linked to a luciferase response element provide a model for ABCA1 induction in astrocytes.[81] […] Apparent inverse agonist activity in cell-based assays can result from true inverse agonist recruitment of corepressors or from antagonist activity towards endogenous sterol LXR agonists. Although we use serum stripped media, antagonism of endogenous LXR agonists cannot be ruled out.
Low passage CCF-STTG1 cells (20,000 cells/well) were seeded in 96-well plates in media containing charcoal-stripped FBS and incubated at 37 °C and 5% CO2 for 24 hours prior to a 24-hour treatment. All compounds were dissolved in DMSO, and final DMSO concentrations never exceeded 1%. After a 24-hour incubation period, add a volume of ONE-GLO™EX Reagent that is equal to the volume of culture medium in each well and incubate for 3 to 5 minutes on the shaker. The luminescent activity of compounds ([…], 10-fold dilution) was examined using the ONE-GLO™EX assay (Promega). The data was normalized to DMSO. The assays were performed in duplicates for each concentration, and the EC50 values were determined from non-linear regression analysis of the dose-response curve generated in GraphPad Prism 9.

LXRβ [5] = target: T1, LXRβ
LXRα [6] = target: T2, LXRα (Homo sapiens, UniProt Q13133); settings: for Effect on 24HC agonism at LXRα: in the presence of 24HC (3 μM); for SRC-1 recruitment to LXRα, efficacy relative to T0: ligand alone, normalized to T0 (100%)
T2 sequence (Q13133 209-447 limits assumed): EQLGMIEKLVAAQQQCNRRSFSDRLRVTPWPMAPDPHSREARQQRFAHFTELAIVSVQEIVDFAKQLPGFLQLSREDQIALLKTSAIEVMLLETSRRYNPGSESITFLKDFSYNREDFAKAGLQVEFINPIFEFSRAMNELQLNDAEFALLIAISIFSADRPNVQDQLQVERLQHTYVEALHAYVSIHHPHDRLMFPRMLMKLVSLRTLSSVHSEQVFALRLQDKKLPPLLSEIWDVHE

LXRα [7] = target: T2, LXRα; test: Corepressor (NCOR2, SMRT2) binding CRT, LXRα; settings: absence of coactivator
[8] = tested on: high-fat diet (HFD) mouse model; settings: cited from earlier work
LXRα [9] = target: T2, LXRα
obese mice on HFD = settings: cited from earlier work
[10] = tested on: mouse model of non-alcoholic steatohepatitis (NASH); settings: cited from earlier work
[11] = cited from earlier work
E3/4FAD mice = settings: cited from earlier work
mice = settings: highest dose 30 mg/kg qd; cited from earlier work
LXRβ [12] = target: T1, LXRβ; test: Multiplex precision CRT (pCRT), SRC1 and NCoR2, LXRβ; assay type: biochemical; set-up: NR-LBD with short coregulator peptides as used in the present work; purchased Thermo Fisher Scientific PV4660; settings: SRC1-btn 200 nM, NCoR2-FL 200 nM
participants = tested on: participants; set-up: method as in PMID 19398602; settings: 300 mg dose; cited from earlier work
hamsters = tested on: hamsters; set-up: method as in PMID 19318684; settings: cited from earlier work
primates = tested on: primates; set-up: method as in PMID 19318684; settings: 50 mg/kg/day p.o., returned to baseline at day 7; cited from earlier work

Cc1cc(C)c(S(=O)(=O)N(Cc2ccc(-c3cccc(S(C)(=O)=O)c3)cc2)Cc2ccc(C(F)(F)F)o2)c(C)c1 [GSK2033]
SMRT2 binding to LXRβ, ligand effect (LXRβ [1]): selectively displace SMRT2 from LXRβ
Lipogenic gene transcription (SREBF1, FAS, SCD1) by RT-PCR [2]: reducing lipogenic gene transcription below baseline
CRT signature category (LXR): HA (hard antagonist (HA))
SRE-luc response [3]: neutral or antagonist response; also recorded: mixed antagonist/inverse agonist phenotype
Expression of lipogenic genes, including FAS and SREBP1c (NASH mouse model): increased rather than suppressed
ABCA1-luc response [4]: inverse agonist activity in cells; also recorded: mixed antagonist/inverse agonist phenotype
Effect on 24HC agonism at LXRβ (LXRβ [5]): antagonized the agonism of 24HC at LXRβ
SRC-1 recruitment to LXRβ, efficacy/potency relative to T0 (LXRβ [5]): neither ligand stabilized the LXR:SRC1 complex alone
Effect on 24HC agonism at LXRα (LXRα [6]): without effect on LXRα
SRC-1 recruitment to LXRα, efficacy relative to T0 (LXRα [6]): neither ligand stabilized the LXR:SRC1 complex alone
Corepressor (NCOR2 and SMRT2) binding to LXRα, ligand effect (LXRα [7]): does not stabilize a conformation that disrupts corepressor binding to LXRα

CCOC(=O)c1cccc(NC(=O)c2sc(Cl)cc2S(=O)(=O)N(C)c2ccc(OCC)c(OCC)c2)c1 [CL2–57]
Plasma and hepatic TG levels [8]: attenuated diet-induced increases in plasma and hepatic TG levels
EC50 ([3]; Homo sapiens, HepG2 SRE-luc, read-out: EC50, SRE activation): 2.8 µM
Recruitment of coactivator TRAP220 to LXRα (LXRα [9]): very minimal recruitment

CCOC(=O)c1ccc(CN(Cc2ccc(-c3cccc(S(C)(=O)=O)c3)cc2)S(=O)(=O)c2c(C)cc(C)cc2C)o1 [SR9238]
Corepressor (NCOR2 and SMRT2) binding to LXRβ, ligand effect (LXRβ [1]; absence of coactivator): strong agonist responses
Plasma TG (obese mice on HFD): plasma TG was suppressed
Lipogenic gene transcription (SREBF1, FAS, SCD1) by RT-PCR [2]: reducing lipogenic gene transcription below baseline
Hepatic inflammation and fibrosis [10]: significantly reduced hepatic inflammation and fibrosis
CRT signature category (LXR): IA (inverse agonist (IA))
SRE-luc response [3]: anomalous activation of SRE at concentrations above 1 μM; also recorded: lowered SRE activation below baseline; also recorded: neutral or antagonist response; also recorded: inverse agonist at < 3 μM concentration
ABCA1-luc response [4]: inverse agonist activity in cells
Effect on 24HC agonism at LXRβ (LXRβ [5]; in the presence of 24HC (3 μM)): antagonized the agonism of 24HC at LXRβ
SRC-1 recruitment to LXRβ, efficacy/potency relative to T0 (LXRβ [5]; ligand alone, normalized to T0 (100%)): neither ligand stabilized the LXR:SRC1 complex alone
Effect on 24HC agonism at LXRα (LXRα [6]): without effect on LXRα
SRC-1 recruitment to LXRα, efficacy relative to T0 (LXRα [6]): neither ligand stabilized the LXR:SRC1 complex alone
Metabolic lability / systemic availability [11]: metabolically labile
Corepressor (NCOR2 and SMRT2) binding to LXRα, ligand effect (LXRα [7]): strong agonist responses

CCOC(=O)c1cc(Cl)cc(NC(=O)c2sc(Cl)cc2S(=O)(=O)N(C)c2ccc(OCC)c(OC)c2)c1 [CL3–3]
Recruitment of coactivator TRAP220 to LXRα (LXRα [9]): very minimal recruitment
SRC-1 recruitment to LXRα, efficacy relative to T0 (LXRα [6]): partial agonist activity at LXRα
ABCA1 expression, APOE lipidation, AD phenotypes, TG (E3/4FAD mice): increased ABCA1 expression, enhanced APOE lipidation and reversed multiple AD phenotypes, without increasing TG

CC(C)(O)c1cn(-c2ccc(-c3cccc(S(C)(=O)=O)c3)cc2)c(C(C)(C)c2ccccc2Cl)n1 [XL652]
NCOR2 binding to LXRβ, ligand effect (LXRβ [1]; absence of coactivator): weakly destabilized the NCOR2 complex with both LXR isoforms
SMRT2 binding to LXRβ, ligand effect (LXRβ [1]; absence of coactivator): did not perturb SMRT2 binding to LXRβ
Plasma triglycerides (mice): elevated plasma triglycerides only at the highest dose
SRE-luc response [3]: anomalous activation of SRE at concentrations above 1 μM; also recorded: little or no activation of SRE at submicromolar concentrations
Efficacy of SRE activation ([3]; concentrations ≤ 1 μM): 20–25 % of T0
Weaker potency for ABCA1 induction compared to XL041 ([4]; versus XL041): more than 100 fold
Recruitment of coactivator TRAP220 to LXRα (LXRα [9]): very minimal recruitment
Corepressor (NCOR2 and SMRT2) binding to LXRα, ligand effect (LXRα [7]): strongly stabilized the corepressor-bound conformation
SMRT2 binding to LXRα, ligand effect (LXRα [7]): stabilization of SMRT2 corepressor binding to LXRα
NCOR2 displacement from LXRβ in the presence of SRC1 (pCRT) (LXRβ [12]): fully displaced

Fc1ccc(-c2c3cccc(C(F)(F)F)c3nn2Cc2ccc(F)cc2Cl)cc1 [LXR-623]
Adverse effects (participants): all 6 participants on the highest 300 mg dose reported neurologic or psychiatric adverse effects
Plasma TG (hamsters): did not cause a dose-dependent increase in plasma TG
Liver TG (primates): significant increase in liver TG was observed but only at high dose
